Test results reported in patent US20260240797A1, “TREATMENT OF ULCERATIVE COLITIS COMPRISING VIDOFLUDIMUS OR A PHARMACEUTICALLY ACCEPTABLE SALT THEREOF” (IMMUNIC AG, priority 2022, published 2026).
Where a name gives a salt, the structure may show the parent alone.

Columns and labels:
[1] = system: patients with relapsing remitting MS (rrMS); conditions: cited from earlier work
[2] = system: T-lymphocyte proliferation; conditions: in vitro; cited from earlier work
[3] = in vivo; cited from earlier work
[4] = system: patients with moderate-to-severe ulcerative colitis; assay: CALDOSE-1 phase 2 trial, maintenance phase efficacy (Week 50); type: in vivo, human; conditions: for Clinical Remission Rate at Week 50 (steroid-free): Modified Full Analysis Set MP; for Number of Patients with Clinical Remission at Week 50 (steroid-free): Modified Full Analysis Set MP (corticosteroids during induction)
[5] = molecular target: human DHODH (Homo sapiens, UniProt Q02127); conditions: cited from earlier work
[6] = system: patients with moderate-to-severe ulcerative colitis; assay: CALDOSE-1 phase 2 trial, safety and tolerability; type: in vivo, human; conditions: for Incidence of TEAEs of Special Interest: red blood cells urine positive, hematuria or retroperitoneal pain
[7] = system: patients with moderate-to-severe ulcerative colitis; assay: CALDOSE-1 phase 2 trial (NCT03341962), induction phase efficacy; type: in vivo, human; conditions: for Odds Ratio Estimate to achieve clinical remission versus placebo: active treatment groups of 30/45 mg, multivariate logistical regression
[8] = system: secretion of IL-17 and IFNγ; conditions: in vitro; cited from earlier work
[9] = system: patients with CD; conditions: 12 weeks, cited from earlier work
[10] = system: patients with active rheumatoid arthritis; conditions: 35 mg once-daily for 13 weeks; cited from earlier work
[11] = system: patients with inflammatory bowel disease (IBD); conditions: 35 mg oral once daily, 12 weeks; cited from earlier work
[12] = system: patients with UC; conditions: 12 weeks, cited from earlier work

Chain of human DHODH (Q02127 whole entry): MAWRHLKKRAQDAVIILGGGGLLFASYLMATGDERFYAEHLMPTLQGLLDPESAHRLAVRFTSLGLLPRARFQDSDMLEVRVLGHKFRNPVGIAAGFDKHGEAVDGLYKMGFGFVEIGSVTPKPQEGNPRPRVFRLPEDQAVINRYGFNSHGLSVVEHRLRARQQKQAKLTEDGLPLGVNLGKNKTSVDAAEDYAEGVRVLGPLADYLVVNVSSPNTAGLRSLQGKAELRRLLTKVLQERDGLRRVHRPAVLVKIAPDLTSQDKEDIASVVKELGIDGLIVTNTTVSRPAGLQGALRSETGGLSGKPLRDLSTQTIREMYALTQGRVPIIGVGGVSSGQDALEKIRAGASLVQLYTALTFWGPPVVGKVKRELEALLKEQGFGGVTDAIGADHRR

SMILES: COc1cccc(-c2ccc(NC(=O)C3=C(C(=O)O)CCC3)c(F)c2)c1 [IMU-838, 1-cyclopentene-1-carboxylic acid, 2-(((3-fluoro-3′-methoxy(1,1′-biphenyl)-4-yl)amino)carbonyl)-, calcium salt (2:1)]
- safety profile ([1]; 30 mg and 45 mg doses): favorable safety profile
- suppression of MRI activity ([1]; 30 mg dose, 24-weeks of treatment): 70%
- T-lymphocyte proliferation [2]: inhibited
- half-life [3]: approximately 30 h
- Clinical Remission Rate at Week 50 (steroid-free) ([4]; 10 mg): 38.5%
- Number of Patients with Clinical Remission at Week 50 (steroid-free) ([4]; 10 mg, N10 = 22): 5
- Mean time to symptomatic UC relapse ([4]; 10 mg, N = 45): 231.7 days
- Clinical Remission Rate at Week 50 ([4]; 10 mg, n = 26/35): 42.3%
- Number of Patients with Clinical Remission at Week 50 ([4]; 10 mg, n = 26/35 evaluated/total): 11
- Endoscopic Healing Rate at Week 50 ([4]; 10 mg, n = 28/35): 53.6%
- Number of Patients Meeting Endpoint (Endoscopic Healing at Week 50) ([4]; 10 mg, n = 28/35): 15
- delta (Δ) vs placebo in clinical remission at Week 50 ([4]; 30 mg, 95% CI 3.2%-59.3%): 33.8%
- Clinical Remission Rate at Week 50 (steroid-free) ([4]; 30 mg): 66.7%
- Number of Patients with Clinical Remission at Week 50 (steroid-free) ([4]; 30 mg, N30 = 22): 8
- Mean time to symptomatic UC relapse ([4]; 30 mg, N = 40): 221.9 days
- Clinical Remission Rate at Week 50 ([4]; 30 mg, n = 26/29): 61.5%
- Endoscopic Healing Rate at Week 50 ([4]; 30 mg, n = 26/29): 73.1%
- Number of Patients Meeting Endpoint (Endoscopic Healing at Week 50) ([4]; 30 mg, n = 26/29): 19
- Number of Patients with Clinical Remission at Week 50 ([4]; 30 mg, n = 26/29 evaluated/total): 16
- odds ratio (30 mg IMU-838/Placebo) for clinical remission at Week 50 ([4]; 30 mg, two-sided Pearson's chi-square p=0.0358): 4.16
- potency against human DHODH [5]: submicromolar potency
- safety and tolerability ([6]; induction phase, 10, 30, 45 mg/day): safe and well-tolerated
- Incidence of Liver TEAEs ([6]; maintenance phase, 10 mg): 2.2%
- Incidence of Renal TEAEs ([6]; maintenance phase, 10 mg): 2.2%
- Incidence of Serious TEAEs ([6]; maintenance phase, 10 mg): 6.7%
- Incidence of TEAEs ([6]; maintenance phase, 10 mg, N10 = 45): 35.6%
- Incidence of TEAEs of Special Interest ([6]; maintenance phase, 10 mg): 0.0%
- Incidence of Liver TEAEs ([6]; maintenance phase, 30 mg): 0.0
- Incidence of Renal TEAEs ([6]; maintenance phase, 30 mg): 5%
- Incidence of Serious TEAEs ([6]; maintenance phase, 30 mg): 5%
- Incidence of TEAEs ([6]; maintenance phase, 30 mg, N30 = 40): 40%
- Incidence of TEAEs of Special Interest ([6]; maintenance phase, 30 mg): 5%
- safety and tolerability ([6]; maintenance phase, 10 and 30 mg): safe and well tolerated
- clinical remission at week 10 ([7]; 10 mg/day, overall intent-to-treat patient population): 14.9%
- clinical remission at week 10 ([7]; 30 mg/day, overall intent-to-treat patient population): 10.6%
- clinical remission at week 10 ([7]; 45 mg/day, overall intent-to-treat patient population): 13.6%
- Odds Ratio Estimate to achieve clinical remission versus placebo ([7]; with concomitant steroids): 0.58
- Odds Ratio Estimate to achieve clinical remission versus placebo ([7]; without concomitant steroids): 3.53
- rate of clinical remission at week 10 ([7]; patients concomitantly taking corticosteroids during induction treatment): 11.5%
- clinical remission (primary endpoint) at Week 10 ([7]; pooled 30 and 45 mg, Full Analysis Set, n=16 missing data): 13.8%
- patients with clinical remission (primary endpoint) at Week 10 ([7]; pooled 30 and 45 mg, Full Analysis Set, of 116 evaluated): 16
- advantage in clinical remission over placebo ([7]; pooled treatment groups at week 10, non-steroid patient population): 11.4%
- clinical remission at week 10 ([7]; pooled treatment groups, non-steroid patient population (no concurrent corticosteroids)): 14.7%
- secretion of IL-17 and IFNγ [8]: inhibited

SMILES: COc1cccc(-c2ccc(NC(=O)C3=C(C(=O)O)CCC3)c(F)c2)c1 [Vidofludimus, 2-((3-fluoro-3′-methoxy-[1,1′-biphenyl]-4-yl)carbamoyl)cyclopent-1-enecarboxylic acid]
- number of partial responders ([9]; 35 mg oral once daily): 4
- partial responders ([9]; 35 mg oral once daily): 29%
- patients in steroid-free remission (complete responders) ([9]; 35 mg oral once daily): 57%
- number of patients in steroid-free remission (complete responders) ([9]; out of 14, 35 mg oral once daily): 8
- diarrhoea, alopecia, neutropenia or liver enzyme elevations [10]: no notable increases
- safety profile compared to placebo [10]: overall similar safety profile as compared to placebo
- tolerability / drug-related serious adverse events [11]: well tolerated and no drug-related serious adverse events were observed
- number of partial responders ([12]; 35 mg oral once daily): 5
- partial responders ([12]; 35 mg oral once daily): 42%
- patients in steroid-free remission (complete responders) ([12]; 35 mg oral once daily): 50%
- number of patients in steroid-free remission (complete responders) ([12]; out of 12, 35 mg oral once daily): 6
